This note sets out measurements from EP2561858B1, “A composition for activating hair follicle stem cells to stimulate hair growth” (LABO Cosprophar AG, priority 2011, dated 2013).

Assay [1] concerns the target T1, 5-alpha reductase activity II (Homo sapiens, UniProt P31213).
T1 construct: skin fibroblasts, cells that contain different types of enzymes involved in the biosynthesis of steroids, were used; endogenous in cells; host or cells: skin fibroblasts
T1 sequence (P31213 1-254): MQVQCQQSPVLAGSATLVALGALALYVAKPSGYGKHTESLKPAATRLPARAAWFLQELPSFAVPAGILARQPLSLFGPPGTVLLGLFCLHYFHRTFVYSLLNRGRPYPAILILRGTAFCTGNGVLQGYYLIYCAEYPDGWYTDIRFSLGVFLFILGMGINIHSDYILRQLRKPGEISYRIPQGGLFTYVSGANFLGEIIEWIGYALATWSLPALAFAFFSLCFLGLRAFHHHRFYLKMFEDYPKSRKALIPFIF
The assay can be described thus: 5-alpha reductase inhibition in skin fibroblasts (marked Testosterone to DHT, TLC), type II. The format is cell-based. As to conditions: 100µM, 1 hour at 37°C preincubation, 3 hr with marked Testosterone. The method, then: (§1) In the experiment, skin fibroblasts, cells that contain different types of enzymes involved in the biosynthesis of steroids, were used. These cells represent a good system for the evaluation of the kinetic parameters of enzyme inhibitors such as 5-alpha reductase, delegated to steroid metabolism.
(§2) Fibroblasts were or were not incubated with 100µM of active Biochanin-A for 1 hour at 37°C before the addition of a known quantity of marked Testosterone, at the concentration of 1.5 micromoles. After 3 hr we proceeded with the extraction of the radioactive steroids. The amount of marked Testosterone and DHT are determined by TLC (Thin Layer Chromatography) to quantify 5-alpha reductase activity.

The target in assay [2] is T2, 5-alpha reductase activity I (Homo sapiens, UniProt P18405).
T2 construct: skin fibroblasts, cells that contain different types of enzymes involved in the biosynthesis of steroids, were used; endogenous in cells; host or cells: skin fibroblasts
T2 sequence (P18405 1-259): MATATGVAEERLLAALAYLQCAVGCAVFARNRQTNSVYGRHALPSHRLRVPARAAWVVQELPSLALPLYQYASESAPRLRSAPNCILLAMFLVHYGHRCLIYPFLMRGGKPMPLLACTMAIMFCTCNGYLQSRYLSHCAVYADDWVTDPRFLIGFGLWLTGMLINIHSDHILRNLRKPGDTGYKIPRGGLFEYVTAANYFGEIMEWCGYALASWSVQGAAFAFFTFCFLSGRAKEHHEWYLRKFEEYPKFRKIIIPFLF
Kind of assay: 5-alpha reductase inhibition in skin fibroblasts (marked Testosterone to DHT, TLC), type I. The format is cell-based. As to conditions: 100µM, 1 hour at 37°C preincubation, 3 hr with marked Testosterone. The method, then:
as §1, §2

For `COc1ccc(-c2coc3cc(O)cc(O)c3c2=O)cc1` [Biochanin-A], in assay [1], the “5-alpha reductase activity II compared to the negative control” value is -93%. Besides, the “5-alpha reductase activity I compared to the negative control” value in assay [2] was -64%.
